Laboratory results as given in patent publication US11298355B2 (Aerovate Therapeutics, Inc., priority 2019, dated 2022).

Test: Thermal stability and polymorphism of imatinib salts
Format: physicochemical
Settings: imatinib salt forms

Compound	thermal stability and polymorphic forms
O=S(=O)(O)CCO [isethionate]	suitable thermal stability and few or single polymorphic forms
malate	suitable thermal stability and few or single polymorphic forms
malonate	suitable thermal stability and few or single polymorphic forms
tartrate	suitable thermal stability and few or single polymorphic forms
